From the supplement of paper PMC11424490 come the findings set out here.

Assay [1] relates to SW837. Put plainly: combination cScore with sotorasib (Bliss gap around IC50) (%PoC); higher = stronger additive effect. Here is the method: (§1)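 Combination screen of 179 inhibitors with the KRAS G12C inhibitor sotorasib (AMG510) in dose matrices, CellTiter-Glo readout in NCI-H2122 (72 h), SW837 (144 h) and NCI-H358 cells. The cScore is the mean Bliss-independence gap (expected minus observed viability, in %PoC) over a 3x3 field around the IC50s of both drugs. Positive means additive, and >~10 is stated as clear additive.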

For assay [2], the system named is NCI-H2122. The description is as above. Here is the method: as §1
For assay [3], the system named is SW837. Kind of assay: combination cScore with adagrasib (Bliss gap around IC50) (%PoC); higher = stronger additive effect. The method, boiled down: (§2)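 NCI-H2122, NCI-H358 and SW837 cells were plated in 384-well plates at 500 or 800 cells per well, treated with concentration matrices after 24 h, and grown for 72 h (SW837 for 144 h). Luminescence from CellTiter-Glo was expressed as percent of control relative to vehicle wells and fitted with four-parameter curves. The score is the mean Bliss-independence gap, expected minus measured viability, across a field around both monotherapy IC50 values, or across the top concentrations where no IC50 was reached.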

Assay [4] concerns NCI-H2122. Described as above. The essentials: as §2

Each structure is given as a SMILES string. Where a name gives a salt, the structure may show the parent alone.

Turning to `Nc1nc(F)nc2c1ncn2[C@@H]1O[C@H](CO)[C@@H](O)[C@@H]1O` [Fludarabine] + C=CC(=O)N1CCN(c2nc(=O)n(-c3c(C)ccnc3C(C)C)c3nc(-c4c(O)cccc4F)c(F)cc23)[C@@H](C)C1 [sotorasib], the “combination cScore with sotorasib” value with SW837 [1] was -1.86; with NCI-H2122 [2], 9.97.
With `COc1cc2c(NC3CCN(C(C)C)CC3)nc(C3CCCCC3)nc2cc1OCCCN1CCCC1` [UNC0638] + C=CC(=O)N1CCN(c2nc(=O)n(-c3c(C)ccnc3C(C)C)c3nc(-c4c(O)cccc4F)c(F)cc23)[C@@H](C)C1 [sotorasib], the “combination cScore with sotorasib” value is 9.19 in the assay with SW837 [1] and -0.46 in the assay with NCI-H2122 [2].
For `Cc1ncc([N+](=O)[O-])n1CCOC(=O)NC(Nc1ncccn1)C(Cl)(Cl)Cl` (stereo not given) [Apcin] + C=CC(=O)N1CCN(c2nc(=O)n(-c3c(C)ccnc3C(C)C)c3nc(-c4c(O)cccc4F)c(F)cc23)[C@@H](C)C1 [sotorasib], the results for the “combination cScore with sotorasib” value in the assay on SW837 [1] and with NCI-H2122 [2] were 4.14 and -0.45, respectively.
In the case of `O=C(CCCCCCC(=O)Nc1ccccc1)NO` [Vorinostat] + C=CC(=O)N1CCN(c2nc(=O)n(-c3c(C)ccnc3C(C)C)c3nc(-c4c(O)cccc4F)c(F)cc23)[C@@H](C)C1 [sotorasib], the “combination cScore with sotorasib” value in the assay with SW837 [1] worked out at 14.9; with NCI-H2122 [2], 8.52.
As to `CC[C@]1(O)C[C@@H]2CN(CCc3c([nH]c4ccccc34)[C@@](C(=O)OC)(c3cc4c(cc3OC)N(C)[C@H]3[C@@](O)(C(=O)OC)[C@H](OC(C)=O)[C@]5(CC)C=CCN6CC[C@]43[C@@H]65)C2)C1` [Vinblastine] + C=CC(=O)N1CCN(c2nc(=O)n(-c3c(C)ccnc3C(C)C)c3nc(-c4c(O)cccc4F)c(F)cc23)[C@@H](C)C1 [sotorasib], the “combination cScore with sotorasib” value worked out at 8.44 in the assay on SW837 [1] and 6.11 in the assay with NCI-H2122 [2].
Take `Cc1ccc(NC(=O)c2ccc(CN3CCN(C)CC3)cc2)cc1Nc1nc(-c2cccnc2)cs1` [Masitinib] + C=CC(=O)N1CCN(c2nc(=O)n(-c3c(C)ccnc3C(C)C)c3nc(-c4c(O)cccc4F)c(F)cc23)[C@@H](C)C1 [sotorasib]: the “combination cScore with sotorasib” value is -1.47 in the assay on SW837 [1] and 17.9 in the assay with NCI-H2122 [2].
Regarding `CC(=O)O[C@H]1C(=O)[C@@]2(C)[C@H]([C@H](OC(=O)c3ccccc3)[C@]3(O)C[C@H](OC(=O)[C@H](O)[C@@H](NC(=O)c4ccccc4)c4ccccc4)C(C)=C1C3(C)C)[C@]1(OC(C)=O)CO[C@@H]1C[C@@H]2O` [Paclitaxel] + C=CC(=O)N1CCN(c2nc(=O)n(-c3c(C)ccnc3C(C)C)c3nc(-c4c(O)cccc4F)c(F)cc23)[C@@H](C)C1 [sotorasib], the “combination cScore with sotorasib” value in the assay on SW837 [1] was found to be 3.37; in the assay with NCI-H2122 [2], 9.86.
The like results for `C[C@@H](Oc1cc(-c2cnn(C3CCNCC3)c2)cnc1N)c1c(Cl)ccc(F)c1Cl` + C=CC(=O)N1CCN(c2nc(=O)n(-c3c(C)ccnc3C(C)C)c3nc(-c4c(O)cccc4F)c(F)cc23)[C@@H](C)C1 [sotorasib] were, in that order, 13.5 and 2.31.
For `C[C@@H]1C[C@H]2[C@@H]3CCC4=CC(=O)C=C[C@]4(C)[C@@]3(F)[C@@H](O)C[C@]2(C)[C@@]1(O)C(=O)CO` [Dexamethasone] + C=CC(=O)N1CCN(c2nc(=O)n(-c3c(C)ccnc3C(C)C)c3nc(-c4c(O)cccc4F)c(F)cc23)[C@@H](C)C1 [sotorasib], the “combination cScore with sotorasib” value in the assay with SW837 [1] is -13.1; with NCI-H2122 [2], -0.78.
On the same counts, the results for `CO[C@H]1CC[C@H](n2c([C@@H]3CCCC(=O)N3c3ccc(F)c(F)c3)nc3cc(-c4c(C)noc4C)ccc32)CC1` [CCS1477] + C=CC(=O)N1CCN(c2nc(=O)n(-c3c(C)ccnc3C(C)C)c3nc(-c4c(O)cccc4F)c(F)cc23)[C@@H](C)C1 [sotorasib] are 11.8 and 13.8.
As for `CO[C@@]12[C@H](COC(N)=O)C3=C(C(=O)C(C)=C(N)C3=O)N1C[C@@H]1N[C@@H]12` [Mitomycin C] + C=CC(=O)N1CCN(c2nc(=O)n(-c3c(C)ccnc3C(C)C)c3nc(-c4c(O)cccc4F)c(F)cc23)[C@@H](C)C1 [sotorasib], the results for the “combination cScore with sotorasib” value in the assay with SW837 [1] and in the assay with NCI-H2122 [2] were 4.84 and 11, respectively.
On the same counts, the results for `CC(C)(C)c1ccc(S(=O)(=O)NCc2ccc(C(=O)Nc3cccnc3)cc2)cc1` [STF-31] + C=CC(=O)N1CCN(c2nc(=O)n(-c3c(C)ccnc3C(C)C)c3nc(-c4c(O)cccc4F)c(F)cc23)[C@@H](C)C1 [sotorasib] are 17.6 and -10.2.
Turning to `CC(C)c1cc(-c2n[nH]c(=O)n2-c2ccc3c(ccn3C)c2)c(O)cc1O` [Ganetespib] + C=CC(=O)N1CCN(c2nc(=O)n(-c3c(C)ccnc3C(C)C)c3nc(-c4c(O)cccc4F)c(F)cc23)[C@@H](C)C1 [sotorasib], the “combination cScore with sotorasib” value with SW837 [1] was 7.55; with NCI-H2122 [2], -1.8.
The like results for `CCCCCOC(=O)Nc1nc(=O)n([C@@H]2O[C@H](C)[C@@H](O)[C@H]2O)cc1F` [Capecitabin] + C=CC(=O)N1CCN(c2nc(=O)n(-c3c(C)ccnc3C(C)C)c3nc(-c4c(O)cccc4F)c(F)cc23)[C@@H](C)C1 [sotorasib] were, in that order, 1.19 and 4.4.
With `N#CC[C@H](C1CCCC1)n1cc(-c2ncnc3[nH]ccc23)cn1` [Ruxolitinib] + C=CC(=O)N1CCN(c2nc(=O)n(-c3c(C)ccnc3C(C)C)c3nc(-c4c(O)cccc4F)c(F)cc23)[C@@H](C)C1 [sotorasib], the results for the “combination cScore with sotorasib” value in the assay with SW837 [1] and in the assay with NCI-H2122 [2] were 6.8 and 4.05, respectively.
For `Nc1cccc2c1CN(C1CCC(=O)NC1=O)C2=O` (stereo not given) [Lenalidomide] + C=CC(=O)N1CCN(c2nc(=O)n(-c3c(C)ccnc3C(C)C)c3nc(-c4c(O)cccc4F)c(F)cc23)[C@@H](C)C1 [sotorasib], the “combination cScore with sotorasib” value in the assay with SW837 [1] was -2.25; with NCI-H2122 [2], 6.13.
Regarding `Nc1ncn([C@H]2C[C@H](O)[C@@H](CO)O2)c(=O)n1` [Decitabine] + C=CC(=O)N1CCN(c2nc(=O)n(-c3c(C)ccnc3C(C)C)c3nc(-c4c(O)cccc4F)c(F)cc23)[C@@H](C)C1 [sotorasib], the figures for the “combination cScore with sotorasib” value in the assay on SW837 [1] and in the assay with NCI-H2122 [2] were 0.84 and 1, respectively.
Regarding `Nc1nc(Nc2ccc3c(c2)CC[C@@H](N2CCCC2)CC3)nn1-c1cc2c(nn1)-c1ccccc1CCC2` [Bemcentinib] + C=CC(=O)N1CCN(c2nc(=O)n(-c3c(C)ccnc3C(C)C)c3nc(-c4c(O)cccc4F)c(F)cc23)[C@@H](C)C1 [sotorasib], the entries for the “combination cScore with sotorasib” value in the assay on SW837 [1] and with NCI-H2122 [2] were 4.27 and -5, respectively.
As for `C[C@]1(c2nc3c(C(N)=O)cccc3[nH]2)CCCN1` [Veliparib] + C=CC(=O)N1CCN(c2nc(=O)n(-c3c(C)ccnc3C(C)C)c3nc(-c4c(O)cccc4F)c(F)cc23)[C@@H](C)C1 [sotorasib], the “combination cScore with sotorasib” value in the assay on SW837 [1] came to 7.52; in the assay with NCI-H2122 [2], 18.6.
Turning to `CN(C)C(=N)NC(=N)N` [Metformin] + C=CC(=O)N1CCN(c2nc(=O)n(-c3c(C)ccnc3C(C)C)c3nc(-c4c(O)cccc4F)c(F)cc23)[C@@H](C)C1 [sotorasib], the figures for the “combination cScore with sotorasib” value in the assay on SW837 [1] and in the assay with NCI-H2122 [2] were -0.945 and 5.93, respectively.
Turning to `COc1cc2cc(c1Cl)N(C)C(=O)C[C@H](OC(=O)C(C)C)[C@]1(C)O[C@@H]1[C@H](C)[C@@H]1C[C@@](O)(NC(=O)O1)[C@H](OC)/C=C/C=C(\C)C2` [Ansamitocin P3] + C=CC(=O)N1CCN(c2nc(=O)n(-c3c(C)ccnc3C(C)C)c3nc(-c4c(O)cccc4F)c(F)cc23)[C@@H](C)C1 [sotorasib], the entries for the “combination cScore with sotorasib” value with SW837 [1] and in the assay with NCI-H2122 [2] were -0.32 and 5.88, respectively.
Take `COc1ccccc1-c1cc(Nc2cccc(CS(N)(=O)=O)c2)ncn1` [LDC-067] + C=C(F)C(=O)N1CCN(c2nc(OC[C@@H]3CCCN3C)nc3c2CCN(c2cccc4cccc(Cl)c24)C3)C[C@@H]1CC#N [adagrasib]: the “combination cScore with adagrasib” value in the assay on SW837 [3] was determined as 3.49; with NCI-H2122 [4], 5.11.
For `On1ncc2cc(CCc3nn[nH]n3)ccc21` + C=C(F)C(=O)N1CCN(c2nc(OC[C@@H]3CCCN3C)nc3c2CCN(c2cccc4cccc(Cl)c24)C3)C[C@@H]1CC#N [adagrasib], the “combination cScore with adagrasib” value in the assay with SW837 [3] was -2.04; in the assay with NCI-H2122 [4] it was 7.37.
As for `C[C@@H]1CCN(C(=O)CC#N)C[C@@H]1N(C)c1ncnc2[nH]ccc12` [Tofacitinib citrate] + C=C(F)C(=O)N1CCN(c2nc(OC[C@@H]3CCCN3C)nc3c2CCN(c2cccc4cccc(Cl)c24)C3)C[C@@H]1CC#N [adagrasib], the “combination cScore with adagrasib” value is 5.3 in the assay with SW837 [3] and -3.58 in the assay on NCI-H2122 [4].
The like results for `CCc1cccc(CC)c1NC(=O)c1nn(C)c2c1CCc1cnc(Nc3ccc(C(=O)NC4CCN(C)CC4)cc3OC(F)(F)F)nc1-2` [NMS-P715] + C=C(F)C(=O)N1CCN(c2nc(OC[C@@H]3CCCN3C)nc3c2CCN(c2cccc4cccc(Cl)c24)C3)C[C@@H]1CC#N [adagrasib] were, in that order, 2.41 and -2.37.
